Source: patent US20180296595A1, “METHODS AND COMPOSITIONS FOR CANCER TREATMENT” (Memorial Sloan Kettering Cancer Center, priority 2015, published 2018)
Ends that are not written are not given here.

Experiments:
FR1 = FR1 (Homo sapiens, UniProt P15328); conditions: read-out: affinity for FR1; cited from earlier work
FR2 = FR2 (Homo sapiens, UniProt P14207); conditions: read-out: affinity for FR2; cited from earlier work
LNCaP xenografts = test: LNCaP prostate cancer xenografts; assay type: in vivo
Experimental: Each of the photographs in FIG. 6, panel C and panel D depicts a representative animal treated with vehicle (FIG. 6, panel C) or bortezomib-loaded FH (1.0 mM) (FIG. 6, panel D).
Studies in breast cancer described a “low intracellular iron” phenotype, characterized by high ferroportin, which was associated with good prognosis. In contrast, the “high intracellular iron” phenotype, characterized by low ferroportin and high hepcidin, was associated with a poor prognosis (Pinnix et al. (2010), Sci. Transl. Med., 2(43): 43ra56). Recently, a similar observation was made in prostate cancer (Tesfay et al. (2015) Cancer Res., 75(11):2254-63. To extend the analysis to prostate cancer, LNCaP prostate cancer xenografts were treated with FH-loaded bortezomib (a ROS-inducing drug).
FH alone was able to decrease tumor volume by about 33% (panel b). […] Free bortezomib was not effective, but when loaded into FH a significant therapy effect was achieved as shown in (panels a and b). Importantly, FH alone also exerted an effect, decreasing tumor volume. Each of the photographs in panel c and panel d depicts a representative animal treated with vehicle (panel c) or bortezomib-loaded FH (1.0 mM) (panel d).

22RV1 cells = test: FPN expression after hepcidin therapy; assay type: cell-based
Description: As a followup, eight different genomic datasets available for prostate cancer on cBioPortal (www.cbioportal.org) containing whole genome data from 1229 prostate cancer patients were mined for analysis. […] FACS and Western Blotting confirmed higher expression of FPN in 22RV1 compared to DU145 (FIG. 7, panel C). […] In 22RV1 cells with higher FPN higher levels of erastin were required compared to DU145 cells with low FPN (FIG. 7, panel E).

Sequence of FR1 (P15328 25-234): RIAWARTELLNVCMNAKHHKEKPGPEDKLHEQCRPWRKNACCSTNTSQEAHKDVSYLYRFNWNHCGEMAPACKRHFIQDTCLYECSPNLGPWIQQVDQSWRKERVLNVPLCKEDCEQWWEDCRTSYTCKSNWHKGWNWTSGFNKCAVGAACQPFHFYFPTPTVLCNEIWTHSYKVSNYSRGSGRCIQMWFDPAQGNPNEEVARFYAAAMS
Sequence of FR2 (P14207 17-230): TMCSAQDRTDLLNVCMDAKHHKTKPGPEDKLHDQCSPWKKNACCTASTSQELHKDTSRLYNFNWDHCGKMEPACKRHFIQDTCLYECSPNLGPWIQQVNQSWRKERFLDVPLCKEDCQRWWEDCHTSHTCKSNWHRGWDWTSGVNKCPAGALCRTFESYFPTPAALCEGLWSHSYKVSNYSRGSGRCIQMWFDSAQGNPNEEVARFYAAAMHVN

In the case of `CN1c2c(nc(N)[nH]c2=O)NC[C@@H]1CNc1ccc(C(=O)N[C@@H](CCC(=O)O)C(=O)O)cc1` [6S 5-methyltetrahydrofolate], the Kd (FR1) is listed as 55 nM and the Kd (FR2) is listed as 1 nM.
For `CC(C)C[C@H](NC(=O)[C@H](Cc1ccccc1)NC(=O)c1cnccn1)B(O)O` [bortezomib], the therapeutic effect (LNCaP xenografts) was “not effective”.
In the case of “hepcidin (DTHFPICIFCCGCCHRSKCGMCCKT; ends and bridges not checked; cysteine pairing not given here; UniProt P81172 60-84, looked up) [peptide hormone, key regulator of iron homeostasis]”, the “FPN on the cell surface” value (22RV1 cells) is reported as “lowered FPN on the cell surface”.
